Measurements reported in the supplement of paper PMC10307832.

compound: O=C(/C=C/c1cccnc1)NCCCCC1CCN(C(=O)c2ccccc2)CC1 [Daporinad] + CC1(C)CCC(c2ccc(Cl)cc2)=C(CN2CCN(c3ccc(C(=O)NS(=O)(=O)c4ccc(N[C@H](CCN5CCOCC5)CSc5ccccc5)c(S(=O)(=O)C(F)(F)F)c4)cc3)CC2)C1 [Navitoclax] (partner 0.5 µM); assay: relative viability (nuclei count vs DMSO), 5 days (fraction); higher = more cells survive; conditions: first compound 0.0005 µM
Summary of the method: (§1)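 Lung cancer cell lines in 1536-well plates were dosed by pin tool the day after seeding, either with one drug alone or with a fixed anchor-drug dose plus five library-drug doses (not always all listed) in √10 steps. After 5 days, cells were fixed and their nuclei stained in one step (final 0.05% Triton X-100, 1% formaldehyde, 1 ug/ml Hoechst), then counted on 4× images. Relative viability is the nuclei count in treated wells divided by that in vehicle wells. Values are medians of duplicate plates.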

Row | Cell Line | relative viability
1 | NCI-H838 | 1.15
2 | NCI-H1650 | 1.21
3 | EBC-1 | 0.347
4 | NCI-H1703 | 1.16
5 | NCI-H1993 | 0.877
6 | PC-14 | 1.05
7 | NCI-H596 | 1.01
8 | NCI-H2126 | 0.914
9 | EMC-BAC-2 | 1.16
10 | NCI-H2085 | 1.17
11 | Calu-6 | 0.853
12 | HCC-366 | 0.993
13 | NCI-H1666 | 0.957
14 | NCI-H647 | 1.03
15 | LK-2 | 0.865
16 | NCI-H2087 | 1.05
17 | NCI-H2170 | 0.619

Row | Cell Line | relative viability
18 | H3255 | 0.483
19 | COR-L23 | 1.01
20 | COR-L 105 | 0.777
21 | IA-LM | 0.733
22 | LOU-NH91 | 0.678
23 | ChaGo-K-1 | 1.02
24 | NCI-H1793 | 0.453
25 | NCI-H2405 | 0.948
26 | HOP-62 | 1.06
27 | HCC-44 | 1.02
28 | A549 | 1.3
29 | SK-MES-1 | 1.27
30 | LU99A | 0.71
31 | NCI-H727 | 0.409
32 | NCI-H1299 | 1.06
33 | NCI-H1792 | 0.702

same assay, conditions: first compound 0.001581 µM

Row | Cell Line | relative viability
34 | NCI-H838 | 1.23
35 | NCI-H1650 | 1.44
36 | EBC-1 | 0.4
37 | NCI-H1703 | 1.2
38 | NCI-H1993 | 0.753
39 | NCI-H441 | 0.609
40 | PC-14 | 1
41 | NCI-H596 | 1.05
42 | NCI-H2126 | 0.751
43 | EMC-BAC-2 | 1.16
44 | NCI-H2085 | 1.25
45 | Calu-6 | 0.681
46 | HCC-366 | 1.02
47 | NCI-H1666 | 1.05
48 | NCI-H647 | 1.27
49 | LK-2 | 1.04
50 | NCI-H2087 | 0.881

Row | Cell Line | relative viability
51 | NCI-H2170 | 0.561
52 | H3255 | 0.429
53 | COR-L23 | 0.966
54 | COR-L 105 | 0.883
55 | IA-LM | 0.809
56 | LOU-NH91 | 0.851
57 | ChaGo-K-1 | 0.58
58 | NCI-H1793 | 0.499
59 | NCI-H2405 | 0.962
60 | HOP-62 | 0.975
61 | HCC-44 | 0.99
62 | A549 | 1.21
63 | SK-MES-1 | 1.16
64 | LU99A | 0.833
65 | NCI-H727 | 0.568
66 | NCI-H1299 | 1.07
67 | NCI-H1792 | 0.722

same assay, conditions: first compound 0.005 µM

Row | Cell Line | relative viability
68 | NCI-H838 | 0.928
69 | NCI-H1650 | 1.28
70 | EBC-1 | 0.405
71 | NCI-H1703 | 0.816
72 | NCI-H1993 | 0.982
73 | NCI-H441 | 0.815
74 | PC-14 | 0.875
75 | NCI-H596 | 1.3
76 | NCI-H2126 | 0.845
77 | EMC-BAC-2 | 1.01
78 | NCI-H2085 | 1.23
79 | Calu-6 | 0.527
80 | HCC-366 | 1.17
81 | NCI-H1666 | 0.861
82 | NCI-H647 | 1.25
83 | LK-2 | 0.583
84 | NCI-H2087 | 1.03

Row | Cell Line | relative viability
85 | NCI-H2170 | 0.637
86 | H3255 | 0.584
87 | COR-L23 | 0.916
88 | COR-L 105 | 0.722
89 | IA-LM | 0.772
90 | LOU-NH91 | 0.928
91 | ChaGo-K-1 | 0.845
92 | NCI-H1793 | 0.38
93 | NCI-H2405 | 0.684
94 | HOP-62 | 0.943
95 | HCC-44 | 1.02
96 | A549 | 1.12
97 | SK-MES-1 | 1.31
98 | LU99A | 0.94
99 | NCI-H727 | 0.483
100 | NCI-H1299 | 1.11
101 | NCI-H1792 | 0.534

same assay, conditions: first compound 0.01581 µM

Row | Cell Line | relative viability
102 | NCI-H838 | 0.624
103 | NCI-H1650 | 0.501
104 | EBC-1 | 0.389
105 | NCI-H1703 | 0.335
106 | NCI-H1993 | 1.16
107 | NCI-H441 | 0.559
108 | PC-14 | 0.721
109 | NCI-H596 | 0.291
110 | NCI-H2126 | 0.874
111 | EMC-BAC-2 | 0.318
112 | NCI-H2085 | 1.03
113 | Calu-6 | 0.196
114 | HCC-366 | 1.06
115 | NCI-H1666 | 0.796
116 | NCI-H647 | 1.14
117 | LK-2 | 0.393
118 | NCI-H2087 | 0.912

Row | Cell Line | relative viability
119 | NCI-H2170 | 0.825
120 | H3255 | 0.695
121 | COR-L23 | 0.186
122 | COR-L 105 | 0.618
123 | IA-LM | 0.599
124 | LOU-NH91 | 1.24
125 | ChaGo-K-1 | 0.492
126 | NCI-H1793 | 0.569
127 | NCI-H2405 | 0.321
128 | HOP-62 | 0.404
129 | HCC-44 | 0.897
130 | A549 | 0.814
131 | SK-MES-1 | 0.852
132 | LU99A | 0.931
133 | NCI-H727 | 0.29
134 | NCI-H1299 | 1.07
135 | NCI-H1792 | 0.621

compound: COc1cc(Nc2ncc(F)c(Nc3ccc4c(n3)NC(=O)C(C)(C)O4)n2)cc(OC)c1OC [R406] + CC1(C)CCC(c2ccc(Cl)cc2)=C(CN2CCN(c3ccc(C(=O)NS(=O)(=O)c4ccc(N[C@H](CCN5CCOCC5)CSc5ccccc5)c(S(=O)(=O)C(F)(F)F)c4)cc3)CC2)C1 [Navitoclax] (partner 0.5 µM); assay: as above; conditions: first compound 0.08 µM
Summary of the method: as §1

Row | Cell Line | relative viability
136 | NCI-H838 | 1.14
137 | NCI-H1650 | 1.3
138 | EBC-1 | 0.433
139 | NCI-H1703 | 1.17
140 | NCI-H1993 | 0.974
141 | PC-14 | 1.01
142 | NCI-H596 | 0.836
143 | NCI-H2126 | 0.88
144 | EMC-BAC-2 | 1.11
145 | NCI-H2085 | 1.13
146 | Calu-6 | 0.798
147 | HCC-366 | 0.855
148 | NCI-H1666 | 0.627
149 | NCI-H647 | 1.04
150 | LK-2 | 0.726
151 | NCI-H2087 | 1.03
